According to patent US12428408B2, “Fused heterocyclic mescaline derivatives” (Enveric Biosciences Canada Inc., priority 2022, dated 2025):

Columns and labels:
[1] = system: Human NT2/D1 precursor cells (NT2/D1); assay: Neuroplastogenicity assay using human model (NT2) neurons; assay type: cell-based; conditions: RA-treated NT2 cells, 1 μM, 48 hours, vs 0.1% DMSO
Procedure: The compound with formula A(XXXII) was assayed for neuroplastogenic potential using the following procedure. Human NT2/D1 precursor cells (NT2/D1) were purchased from the American Type Culture Collection (ATCC, Manassas, VA, USA). The neuronal differentiation was carried out as previously described (Roloff et al., 2015, PLOS ONE e0118536:1-14; Roloff et al., 2013, BMC Neuroscience 14:141-155) with minor modifications. First, NT2/D1 cells were seeded in T-25 suspension culture flasks (REF #690190, Greiner bio-one, Germany). Each flask contained a minimum of 5×10^6 cells in 10 ml of DMEM/F12 supplemented with 10% fetal bovine serum (FBS), 1% penicillin and streptomycin and 10 μM retinoic acid (RA medium) to start neuronal differentiation. The cells were cultured for 3 days in free floating medium. At the end of the incubation, cells were trypsinized and collected by centrifugation, mechanically dispersed, and counted. Counted cells were seeded on Poly D-Lysine (PDL) coated cover slips (12 mm; diameter round, Fisher Scientific; GG-12-PDL) containing minimum of 0.1×10^5 cells in culture medium without RA. The next day, culture medium was replaced with RA medium containing 2% of FBS. These cells were cultured for 5 days, with a change of RA medium two days later. For the neuronal outgrowth assay, after cells had successfully attached and established under coverslips, the RA medium was replaced with one of the following: (1) test molecules at one of two different concentrations (10 μm or 1 μm); (2) positive control ROCK inhibitor Y-27632, (Dihydrochloride, Sigma-Aldrich); (2) positive control ibuprofen (14883-1G; Sigma-Aldrich), or (4) negative control culture medium containing 2% of FBS. Cells under these conditions were incubated for 48 hours under standard conditions (37° C., 5% CO2) in an incubator prior to the immunofluorescent assay.
For the immunofluorescent assay, the treated cells housed under coverslips were collected after 48 hours of drug treatments. These coverslips washed with calcium chloride-free and magnesium chloride-free phosphate buffered saline (PBS) pH 7.4 (Gibco, #70011-044) and fixed using paraformaldehyde (PFA) 4% in PBS (#J61899, thermoscientific) for 15 min at room temperature (RT) and washed three times with 0.01% of Triton-X100 in PBS (PBST) to remove remaining PFA and to permeabilize the cells. Unspecific binding sites were blocked with 5% Bovine Serum Albumin (BSA) solution (#9048-46-8, Millipore) in PBST for 60 minutes at RT. Rabbit monoclonal antibody β-III-Tubulin (1:5,000, ab52623, Abcam) was applied overnight (O/N) at 4° C. […] Finally, the immunofluorescence images were detected by using Olympus VS110 slide scanner microscope. […]

[2] = molecular target: T1, 5-HT1A receptor (Homo sapiens, UniProt P08908); assay: 5-HT1A receptor radioligand competition assay (SPA); assay type: binding
T1 construct: purchased Perkin Elmer 6110501400UA
T1 sequence (P08908 1-422): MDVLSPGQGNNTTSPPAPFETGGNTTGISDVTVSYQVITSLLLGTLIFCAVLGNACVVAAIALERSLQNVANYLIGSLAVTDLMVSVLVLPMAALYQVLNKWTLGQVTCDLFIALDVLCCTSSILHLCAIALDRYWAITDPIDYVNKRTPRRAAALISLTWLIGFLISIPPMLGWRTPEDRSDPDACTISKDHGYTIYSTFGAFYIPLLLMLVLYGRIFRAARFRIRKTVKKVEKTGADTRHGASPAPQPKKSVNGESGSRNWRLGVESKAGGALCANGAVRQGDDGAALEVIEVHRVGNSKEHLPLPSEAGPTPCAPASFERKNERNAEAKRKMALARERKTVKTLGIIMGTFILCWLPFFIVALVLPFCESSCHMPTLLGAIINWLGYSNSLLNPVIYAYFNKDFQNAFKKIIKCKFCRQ

[3] = molecular target: 5-HT2A receptor (Homo sapiens, UniProt P28223); assay: 5-HT2A receptor radioligand competition assay (SPA)
Sequence of 5-HT2A receptor (P28223 whole entry): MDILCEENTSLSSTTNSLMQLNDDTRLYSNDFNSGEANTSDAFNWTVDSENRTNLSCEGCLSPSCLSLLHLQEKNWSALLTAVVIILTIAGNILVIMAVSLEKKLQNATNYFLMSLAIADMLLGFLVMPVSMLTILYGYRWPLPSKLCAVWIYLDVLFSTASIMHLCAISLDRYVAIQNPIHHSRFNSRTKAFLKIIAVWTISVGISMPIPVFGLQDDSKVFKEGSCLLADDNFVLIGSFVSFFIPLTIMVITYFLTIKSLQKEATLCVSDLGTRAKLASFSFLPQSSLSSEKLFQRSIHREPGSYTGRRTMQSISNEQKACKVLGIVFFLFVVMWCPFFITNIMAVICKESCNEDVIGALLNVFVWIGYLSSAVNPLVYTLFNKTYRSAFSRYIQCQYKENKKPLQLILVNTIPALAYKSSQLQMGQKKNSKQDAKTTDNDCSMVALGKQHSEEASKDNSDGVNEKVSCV

Compound | neurite outgrowth (β-III-tubulin immunofluorescence) compared to negative control [1] | Ki [2] [nM] | Ki [3] [nM]
CC(C)Cc1ccc(C(C)C(=O)O)cc1 (stereo not drawn) [ibuprofen, reference compound] | strong signs of neurite outgrowth |  | 
C[C@@H](N)[C@H]1CC[C@H](C(=O)Nc2ccncc2)CC1 [Y-27632, reference compound] | strong signs of neurite outgrowth |  | 
CC(Cc1ccc2c(c1)OCO2)N(C)CCc1c[nH]c2ccccc12 (stereo not drawn) [A(XXXII)] | strong signs of neurite outgrowth | 465 | 465
CC(Cc1ccc2c(c1)OCO2)NCCc1c[nH]c2ccccc12 (stereo not drawn) [A(XXXI)] | strong signs of neurite outgrowth |  | 
